# Measurements reported in patent publication US11214803B2, “Modulators of YAP1 expression” (Ionis Pharmaceuticals, Inc., priority 2019, dated 2022).
# Strand notation (5' to 3'): a small letter for the sugar, then the base; units joined by * are phosphorothioate-linked, units joined directly phosphodiester-linked; [ ] holds rarer units or linkages, { } end groups; capitals alone tell only the bases. k = constrained ethyl (cEt); [5mC] = 5-methylcytosine; d = 2'-deoxy (DNA)
# Tested on: Yap1 mRNA
# Experiment: Antisense inhibition of human Yap1 in A-431 cells by cEt gapmers, single dose (Example 2, RTS4814)
# Format: cell-based
# How it was run: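 Free uptake, 2,000 nM, ~48 h, A-431 at 5,000 cells/well. Readout: RT-qPCR (RTS4814), RIBOGREEN-normalized, % UTC. 16-mer 3-10-3 cEt gapmers, full PS backbone, all C as 5-methylcytosine.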
# [1] = Table 23, Yap1 mRNA as percent of untreated control, 3-10-3 cEt gapmers, single dose
# [2] = Yap1 mRNA as percent of untreated control, A-431 cells, 3-10-3 cEt gapmers targeting SEQ ID NO.: 1, and 2, Table 31
# [3] = Table 33, Yap1 mRNA, percent of untreated control, 3-10-3 cEt gapmers targeting SEQ ID NO.: 1, and 2
# [4] = Table 21, Yap1 mRNA, percent of untreated control, 3-10-3 cEt gapmers targeting SEQ ID NO.: 1 and 2
# [5] = Table 6, A-431 cells, 5,000 cells per well, free uptake, 2,000 nM modified oligonucleotide, approx. 48 hours, RTS4814, normalized to RIBOGREEN, Yap1 mRNA relative to untreated control cells
# [6] = Table 19, A-431 cells, 5,000 cells per well, free uptake, 2,000 nM modified oligonucleotide, approx. 48 hours, RTS4814, normalized to RIBOGREEN, Yap1 mRNA as percent of untreated control
# [7] = Table 5, A-431 cells, 5,000 cells per well, free uptake, 2,000 nM modified oligonucleotide, approx. 48 hours, RTS4814, normalized to RIBOGREEN, Yap1 mRNA relative to untreated control cells
# [8] = Table 25, Yap1 mRNA as percent of untreated control, 3-10-3 cEt gapmers targeting SEQ ID NO.: 1, and 2
# [9] = Table 22, Yap1 mRNA as percent of untreated control, 3-10-3 cEt gapmers, single dose
# [10] = Table 20, Yap1 mRNA, percent of untreated control, 3-10-3 cEt gapmers targeting SEQ ID NO.: 1 and 2
# [11] = Table 24, Yap1 mRNA as percent of untreated control, 3-10-3 cEt gapmers targeting SEQ ID NO.: 1, and 2
# [12] = Table 18, A-431 cells, 5,000 cells per well, free uptake, 2,000 nM modified oligonucleotide, approx. 48 hours, RTS4814, normalized to RIBOGREEN, Yap1 mRNA as percent of untreated control
# [13] = A-431 cells, 5,000 cells per well, free uptake, 2,000 nM modified oligonucleotide, approx. 48 hours, RTS4814, normalized to RIBOGREEN, Table 4, asterisk (*) = targets amplicon region of primer probe set
# [14] = Table 32, Yap1 mRNA, percent of untreated control, 3-10-3 cEt gapmers targeting SEQ ID NO.: 1, and 2
substance,measurement,setting,value
1076425 (k[5mC]*kG*kG*dG*dA*dA*dA*dA*dT*dT*d[5mC]*dT*dG*kG*kA*kG; antisense) [Compound 1076425],YAP1 (% UTC),[1],32 % UTC
1076497 (kA*kA*kA*dG*dA*dA*dT*dA*d[5mC]*d[5mC]*dA*dA*d[5mC]*k[5mC]*kT*kG; antisense) [compound 1076497],YAP1 (% UTC),[2],72 % UTC
1074739 (kG*kA*k[5mC]*dT*d[5mC]*dT*dT*dA*dG*dG*dT*d[5mC]*dT*k[5mC]*k[5mC]*kT; antisense) [compound 1074739],YAP1 (% UTC),[3],24 % UTC
1074705 (antisense kG*k[5mC]*kA*d[5mC]*dG*dG*dT*dG*dT*dA*dA*dG*dA*k[5mC]*kA*kA) [compound 1074705],YAP1 (% UTC),[2],20 % UTC
1075623 (k[5mC]*kA*kT*dA*dA*dT*d[5mC]*dA*dA*dA*dA*dT*dG*kG*kG*k[5mC]; antisense) [Compound 1075623],YAP1 (% UTC),[4],48 % UTC
716465 (kG*k[5mC]*kT*d[5mC]*dT*dT*dT*d[5mC]*dT*dA*dG*dA*dA*k[5mC]*kA*k[5mC]; antisense) [Compound 716465],YAP1 (% UTC),[5],82 % UTC
1076325 (k[5mC]*kT*kA*dA*dT*dA*dA*dT*dG*dG*dA*dA*dG*kA*kG*kT; antisense) [Compound 1076325],YAP1 (% UTC),[6],16 % UTC
716371 (kT*kG*kG*dA*dG*dT*d[5mC]*dA*dG*dG*dG*d[5mC]*dT*k[5mC]*k[5mC]*kT; antisense) [Compound 716371],YAP1 (% UTC),[7],115 % UTC
1076235 (kT*k[5mC]*kA*dA*dA*dA*dT*dA*dA*dT*d[5mC]*dA*dG*k[5mC]*k[5mC]*k[5mC]; antisense) [Compound 1076235],YAP1 (% UTC),[8],34 % UTC
1074248 (antisense kG*kA*kT*d[5mC]*dG*dA*dT*dG*dT*dG*dA*dT*dT*kT*kA*kA) [Compound 1074248],YAP1 (% UTC),[9],29 % UTC
1075397 (antisense k[5mC]*kA*kT*dT*dA*dT*d[5mC]*dG*d[5mC]*dA*d[5mC]*dA*dT*kA*k[5mC]*kA) [Compound 1075397],YAP1 (% UTC),[6],79 % UTC
1076262 (kA*kG*kA*d[5mC]*dA*dA*dT*dA*dG*dT*d[5mC]*dT*dG*kG*kG*k[5mC]; antisense) [Compound 1076262],YAP1 (% UTC),[10],41 % UTC
1074218 (antisense kA*kG*kG*dG*d[5mC]*dT*d[5mC]*d[5mC]*dT*dG*d[5mC]*dA*dG*kT*kG*k[5mC]) [Compound 1074218],YAP1 (% UTC),[11],70 % UTC
716497 (kA*kG*k[5mC]*dA*dG*d[5mC]*dT*dT*dT*dT*dG*d[5mC]*d[5mC]*kA*kG*kG; antisense) [Compound 716497],YAP1 (% UTC),[7],65 % UTC
1076328 (kA*k[5mC]*kT*dG*dA*dA*d[5mC]*d[5mC]*dG*d[5mC]*dT*dG*d[5mC]*k[5mC]*kT*k[5mC]; antisense) [Compound 1076328],YAP1 (% UTC),[9],33 % UTC
1074852 (antisense kA*kA*kT*dT*dG*dT*dT*dA*dT*dG*dA*dT*dA*kG*kG*k[5mC]) [Compound 1074852],YAP1 (% UTC),[12],4 % UTC
716513 (antisense kA*kA*kT*d[5mC]*dT*dT*dA*dA*dT*d[5mC]*dT*dG*dT*kG*kG*k[5mC]) [Compound 716513],YAP1 (% UTC),[5],30 % UTC
1075178 (antisense k[5mC]*kT*kG*dG*dA*dA*dG*dA*dA*dA*dT*dT*dA*k[5mC]*k[5mC]*k[5mC]) [Compound 1075178],YAP1 (% UTC),[11],47 % UTC
1075402 (antisense kG*kA*kG*d[5mC]*dA*dA*d[5mC]*dA*d[5mC]*dA*dA*dG*d[5mC]*kA*kT*kA) [Compound 1075402],YAP1 (% UTC),[11],45 % UTC
1074470 (k[5mC]*k[5mC]*k[5mC]*d[5mC]*d[5mC]*d[5mC]*dA*d[5mC]*d[5mC]*dG*dA*d[5mC]*d[5mC]*k[5mC]*kT*kG; antisense) [Compound 1074470],YAP1 (% UTC),[10],69 % UTC
1075208 (antisense kA*k[5mC]*kT*dG*dA*dA*d[5mC]*dA*d[5mC]*dA*dG*dG*d[5mC]*kT*kA*k[5mC]) [Compound 1075208],YAP1 (% UTC),[9],24 % UTC
716553 (kA*kT*k[5mC]*d[5mC]*dA*d[5mC]*d[5mC]*dT*dG*dA*dG*d[5mC]*dA*k[5mC]*kT*k[5mC]; antisense) [Compound 716553],YAP1 (% UTC),[13],54 % UTC
1075058 (antisense kA*kT*kT*dA*d[5mC]*dA*dA*dA*dG*dT*dA*dG*d[5mC]*kA*kA*k[5mC]) [compound 1075058],YAP1 (% UTC),[14],66 % UTC
1076231 (kT*kT*kA*dG*dA*dA*dA*dT*dG*dG*dA*d[5mC]*dT*kG*kG*kG; antisense) [Compound 1076231],YAP1 (% UTC),[4],16 % UTC
1075300 (k[5mC]*kG*kT*dG*dA*dA*dA*dA*dG*dA*dA*dA*dG*kG*k[5mC]*k[5mC]; antisense) [Compound 1075300],YAP1 (% UTC),[12],98 % UTC
1075635 (antisense kA*kA*kT*dA*dA*dA*d[5mC]*dA*d[5mC]*d[5mC]*dT*d[5mC]*dG*k[5mC]*k[5mC]*kA) [compound 1075635],YAP1 (% UTC),[3],97 % UTC
1075911 (kT*kG*kA*d[5mC]*dA*dA*dA*dA*d[5mC]*dA*dG*dG*d[5mC]*kA*k[5mC]*k[5mC]; antisense) [Compound 1075911],YAP1 (% UTC),[4],41 % UTC
1076392 (kT*kA*kT*dT*dA*dA*dT*d[5mC]*dA*dA*dA*dT*dA*kG*kG*kG; antisense) [Compound 1076392],YAP1 (% UTC),[9],64 % UTC
716429 (kT*kG*kG*d[5mC]*dA*dT*d[5mC]*d[5mC]*dA*dT*d[5mC]*dA*dT*k[5mC]*k[5mC]*kA; antisense) [Compound 716429],YAP1 (% UTC),[5],28 % UTC
716518 (antisense k[5mC]*kA*kA*dG*dG*dT*d[5mC]*d[5mC]*d[5mC]*d[5mC]*d[5mC]*dT*dA*kA*kA*kT) [Compound 716518],YAP1 (% UTC),[7],88 % UTC
716451 (k[5mC]*k[5mC]*k[5mC]*dA*dA*dG*d[5mC]*dT*dA*d[5mC]*dA*dA*d[5mC]*kT*kA*kT; antisense) [Compound 716451],YAP1 (% UTC),[13],67 % UTC
1075250 (kA*kA*kT*dT*dA*d[5mC]*dG*dA*dT*dT*dA*dG*dA*kT*k[5mC]*kA; antisense) [compound 1075250],YAP1 (% UTC),[14],55 % UTC
1076363 (k[5mC]*kA*kT*dA*dA*dA*dA*dG*dT*d[5mC]*d[5mC]*dA*d[5mC]*kT*kA*kA; antisense) [Compound 1076363],YAP1 (% UTC),[8],72 % UTC
1075588 (kA*k[5mC]*kT*dT*dA*dT*dT*dA*dG*d[5mC]*dA*d[5mC]*d[5mC]*kT*kG*kG; antisense) [Compound 1075588],YAP1 (% UTC),[12],27 % UTC
1076420 (k[5mC]*k[5mC]*kA*dT*dA*dT*dA*dA*dT*dA*dA*d[5mC]*d[5mC]*k[5mC]*kA*kT; antisense) [Compound 1076420],YAP1 (% UTC),[12],26 % UTC
1075827 (kA*kT*kA*d[5mC]*dT*dA*dT*dA*d[5mC]*d[5mC]*dT*dA*dA*kG*kG*kA; antisense) [compound 1075827],YAP1 (% UTC),[3],60 % UTC
1074953 (antisense kG*kG*kG*dT*dT*dT*dT*dT*dG*dT*d[5mC]*dA*dT*k[5mC]*kA*kG) [Compound 1074953],YAP1 (% UTC),[1],32 % UTC
716456 (kA*k[5mC]*k[5mC]*dA*d[5mC]*dA*d[5mC]*dT*dA*dT*dT*dA*dT*kA*kA*kA; antisense) [Compound 716456],YAP1 (% UTC),[5],96 % UTC
716490 (kA*k[5mC]*kA*dA*d[5mC]*d[5mC]*dA*dA*d[5mC]*dT*dA*dT*dT*kA*k[5mC]*kT; antisense) [Compound 716490],YAP1 (% UTC),[13],63 % UTC
1075844 (kT*kA*kT*dT*dA*dA*dA*dT*dA*dA*dG*dA*dG*k[5mC]*kT*k[5mC]; antisense) [Compound 1075844],YAP1 (% UTC),[12],84 % UTC
1075435 (antisense k[5mC]*kT*kT*dA*dA*dA*d[5mC]*dG*dA*dT*dA*dA*dA*kG*kT*kA) [Compound 1075435],YAP1 (% UTC),[8],93 % UTC
716406 (kA*k[5mC]*kT*d[5mC]*dT*d[5mC]*dA*dT*d[5mC]*dT*d[5mC]*dG*dA*kG*kA*kG; antisense) [Compound 716406],YAP1 (% UTC),[13],117 % UTC
1074163 (k[5mC]*kA*kG*dG*d[5mC]*dG*dA*dG*d[5mC]*dG*dA*dG*dG*kG*k[5mC]*kT; antisense) [compound 1074163],YAP1 (% UTC),[3],118 % UTC
1075600 (antisense k[5mC]*kA*k[5mC]*dT*dA*dT*dA*dA*dT*d[5mC]*dT*dG*dA*k[5mC]*k[5mC]*k[5mC]) [compound 1075600],YAP1 (% UTC),"Yap1 mRNA as percent of untreated control, A-431 cells, 3-10-3 cEt gapmers targeting SEQ ID NO.: 1, and 2, Table 30",68 % UTC
